Data: PubChem BioAssay (NCI)
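The concentration for 50% growth inhibition is given as GI50. TGI marks complete inhibition of growth.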

Columns and labels:
Assay in all cases: DTP human tumour cell line panel, 384-well format
[1] = system: PC-3 prostate
[2] = system: HOP-62 NSCLC
[3] = system: T-47D breast
[4] = system: TK-10 renal
[5] = system: HCT-116 colon
[6] = system: NCI-H460 NSCLC
[7] = system: OVCAR-4 ovarian
[8] = system: MDA-MB-468 breast
[9] = system: NCI-H226 lung
[10] = system: RPMI-8226 leukemia
[11] = system: COLO 205 colon
[12] = system: HCC-2998 colon
[13] = system: HT29 colon
[14] = system: HS 578T breast
[15] = system: OVCAR-3 ovarian
[16] = system: MDA-MB-435 melanoma
[17] = system: HL-60(TB) leukemia
[18] = system: OVCAR-8 ovarian
[19] = system: MALME-3M melanoma
[20] = system: HCT-15 colon
[21] = system: MCF7 breast
[22] = system: SF-268 CNS
[23] = system: LOX IMVI melanoma
[24] = system: SNB-19 CNS
[25] = system: KM12 colon
[26] = system: SK-OV-3 ovarian
[27] = system: RXF 393 renal
[28] = system: NCI-H23 lung
[29] = system: SNB-75 CNS
[30] = system: NCI-H322M lung
[31] = system: OVCAR-5 ovarian
[32] = system: NCI-H522 lung
[33] = system: SF-539 CNS
[34] = system: CAKI-1 renal
[35] = system: SK-MEL-5 melanoma
[36] = system: SN12C renal
[37] = system: SK-MEL-28 melanoma
[38] = system: DU-145 prostate
[39] = system: IGROV1 ovarian
[40] = system: UACC-62 melanoma
[41] = system: HOP-92 NSCLC
[42] = system: MOLT-4 leukemia
[43] = system: MDA-MB-231 breast
[44] = system: A549 NSCLC
[45] = system: SR leukemia
[46] = system: M14 melanoma
[47] = system: ACHN renal
[48] = system: UACC-257 melanoma
[49] = system: A498 renal
[50] = system: BT-549 breast
[51] = system: NCI/ADR-RES ovarian
[52] = system: EKVX NSCLC
[53] = system: SF-295 CNS
[54] = system: U251 glioblastoma

**Q.** How did the GI50 [1] turn out when `NC(=O)c1ccc(N(C(N)=O)c2c(F)cccc2F)nc1-c1ccc(F)cc1F` was run?
**A.** > 100 µM

**Q.** What about the TGI [1] of the same compound?
**A.** > 100 µM

**Q.** What about the GI50 [2] of the same compound?
**A.** > 100 µM

**Q.** And the TGI [2]?
**A.** > 100 µM

**Q.** What about the GI50 [3] of the same compound?
**A.** > 100 µM

**Q.** And the TGI [3]?
**A.** > 100 µM

**Q.** What about the GI50 [4] of the same compound?
**A.** > 100 µM

**Q.** And the TGI [4]?
**A.** > 100 µM

**Q.** What about the GI50 [5] of the same compound?
**A.** > 100 µM

**Q.** What about the TGI [5] of the same compound?
**A.** > 100 µM

**Q.** And the GI50 [6]?
**A.** > 100 µM

**Q.** And the TGI [6]?
**A.** > 100 µM

**Q.** What about the GI50 [7] of the same compound?
**A.** > 100 µM

**Q.** What about the TGI [7] of the same compound?
**A.** > 100 µM

**Q.** What about the GI50 [8] of the same compound?
**A.** > 100 µM

**Q.** What about the TGI [8] of the same compound?
**A.** > 100 µM

**Q.** And the GI50 [9]?
**A.** > 100 µM

**Q.** What about the TGI [9] of the same compound?
**A.** > 100 µM

**Q.** And the GI50 [10]?
**A.** > 100 µM

**Q.** And the TGI [10]?
**A.** > 100 µM

**Q.** And the GI50 [11]?
**A.** > 100 µM

**Q.** And the TGI [11]?
**A.** > 100 µM

**Q.** And the GI50 [12]?
**A.** > 100 µM

**Q.** And the TGI [12]?
**A.** > 100 µM

**Q.** What about the GI50 [13] of the same compound?
**A.** > 100 µM

**Q.** And the TGI [13]?
**A.** > 100 µM

**Q.** And the GI50 [14]?
**A.** > 100 µM

**Q.** What about the TGI [14] of the same compound?
**A.** > 100 µM

**Q.** What about the GI50 [15] of the same compound?
**A.** > 100 µM

**Q.** What about the TGI [15] of the same compound?
**A.** > 100 µM

**Q.** And the GI50 [16]?
**A.** > 100 µM

**Q.** And the TGI [16]?
**A.** > 100 µM

**Q.** And the GI50 [17]?
**A.** > 100 µM

**Q.** And the TGI [17]?
**A.** > 100 µM

**Q.** And the GI50 [18]?
**A.** > 100 µM

**Q.** And the TGI [18]?
**A.** > 100 µM

**Q.** What about the GI50 [19] of the same compound?
**A.** > 100 µM

**Q.** What about the TGI [19] of the same compound?
**A.** > 100 µM

**Q.** And the GI50 [20]?
**A.** > 100 µM

**Q.** And the TGI [20]?
**A.** > 100 µM

**Q.** And the GI50 [21]?
**A.** > 100 µM

**Q.** What about the TGI [21] of the same compound?
**A.** > 100 µM

**Q.** And the GI50 [22]?
**A.** > 100 µM

**Q.** And the TGI [22]?
**A.** > 100 µM

**Q.** What about the GI50 [23] of the same compound?
**A.** > 100 µM

**Q.** And the TGI [23]?
**A.** > 100 µM

**Q.** And the GI50 [24]?
**A.** > 100 µM

**Q.** And the TGI [24]?
**A.** > 100 µM

**Q.** What about the GI50 [25] of the same compound?
**A.** > 100 µM

**Q.** And the TGI [25]?
**A.** > 100 µM

**Q.** And the GI50 [26]?
**A.** > 100 µM

**Q.** And the TGI [26]?
**A.** > 100 µM

**Q.** What about the GI50 [27] of the same compound?
**A.** > 100 µM

**Q.** What about the TGI [27] of the same compound?
**A.** > 100 µM

**Q.** What about the GI50 [28] of the same compound?
**A.** > 100 µM

**Q.** And the TGI [28]?
**A.** > 100 µM

**Q.** What about the GI50 [29] of the same compound?
**A.** > 100 µM

**Q.** And the TGI [29]?
**A.** > 100 µM

**Q.** What about the GI50 [30] of the same compound?
**A.** > 100 µM

**Q.** And the TGI [30]?
**A.** > 100 µM

**Q.** What about the GI50 [31] of the same compound?
**A.** > 100 µM

**Q.** What about the TGI [31] of the same compound?
**A.** > 100 µM

**Q.** And the GI50 [32]?
**A.** > 100 µM

**Q.** And the TGI [32]?
**A.** > 100 µM

**Q.** And the GI50 [33]?
**A.** > 100 µM

**Q.** And the TGI [33]?
**A.** > 100 µM

**Q.** What about the GI50 [34] of the same compound?
**A.** > 100 µM

**Q.** What about the TGI [34] of the same compound?
**A.** > 100 µM

**Q.** And the GI50 [35]?
**A.** > 100 µM

**Q.** And the TGI [35]?
**A.** > 100 µM

**Q.** And the GI50 [36]?
**A.** > 100 µM

**Q.** What about the TGI [36] of the same compound?
**A.** > 100 µM

**Q.** And the GI50 [37]?
**A.** > 100 µM

**Q.** What about the TGI [37] of the same compound?
**A.** > 100 µM

**Q.** What about the GI50 [38] of the same compound?
**A.** > 100 µM

**Q.** What about the TGI [38] of the same compound?
**A.** > 100 µM

**Q.** And the GI50 [39]?
**A.** > 100 µM

**Q.** What about the TGI [39] of the same compound?
**A.** > 100 µM

**Q.** And the GI50 [40]?
**A.** > 100 µM

**Q.** What about the TGI [40] of the same compound?
**A.** > 100 µM

**Q.** And the GI50 [41]?
**A.** > 100 µM

**Q.** What about the TGI [41] of the same compound?
**A.** > 100 µM

**Q.** What about the GI50 [42] of the same compound?
**A.** > 100 µM

**Q.** And the TGI [42]?
**A.** > 100 µM

**Q.** What about the GI50 [43] of the same compound?
**A.** > 100 µM

**Q.** What about the TGI [43] of the same compound?
**A.** > 100 µM

**Q.** And the GI50 [44]?
**A.** > 100 µM

**Q.** And the TGI [44]?
**A.** > 100 µM

**Q.** What about the GI50 [45] of the same compound?
**A.** 98.2 µM

**Q.** And the TGI [45]?
**A.** > 100 µM

**Q.** And the GI50 [46]?
**A.** > 100 µM

**Q.** What about the TGI [46] of the same compound?
**A.** > 100 µM

**Q.** What about the GI50 [47] of the same compound?
**A.** > 100 µM

**Q.** And the TGI [47]?
**A.** > 100 µM

**Q.** And the GI50 [48]?
**A.** > 100 µM

**Q.** And the TGI [48]?
**A.** > 100 µM

**Q.** What about the GI50 [49] of the same compound?
**A.** > 100 µM

**Q.** What about the TGI [49] of the same compound?
**A.** > 100 µM

**Q.** What about the GI50 [50] of the same compound?
**A.** > 100 µM

**Q.** And the TGI [50]?
**A.** > 100 µM

**Q.** And the GI50 [51]?
**A.** > 100 µM

**Q.** What about the TGI [51] of the same compound?
**A.** > 100 µM

**Q.** What about the GI50 [52] of the same compound?
**A.** > 100 µM

**Q.** What about the TGI [52] of the same compound?
**A.** > 100 µM

**Q.** And the GI50 [53]?
**A.** > 100 µM

**Q.** What about the TGI [53] of the same compound?
**A.** > 100 µM

**Q.** What about the GI50 [54] of the same compound?
**A.** > 100 µM

**Q.** What about the TGI [54] of the same compound?
**A.** > 100 µM
